# According to patent US20160101076A1, “Use of Sumoylation Inhibitors for Treating Cancer” (priority 2013, published 2016):
# Peptide text beside a SMILES is read from it. * marks the point of attachment. Cbz = O=C(OCc1ccccc1)*
# How the values were obtained:
# [1] = tested on: FREM2 and RET expression; test: Estrogen responsiveness of FREM2 expression, Tamoxifen treatment; type: cell-based; details: FIG. 11E
# [2] = tested on: sumoylated TFAP2A in BT549 cells; test: Sumoylation of TFAP2A in BT549 cells with peroxide / MG-132; type: cell-based, human
# Protocol: FIG. 15A-15B. Sumoylated TFAP2A in Basal Cells Induced with Peroxide. Sumoylation of TFAP2A was analyzed in the basal cell line BT549 with and without treatment with peroxide. FIG. 15A. BT549 cells co-transfected with vectors for TFAP2A and either SUMO-1, -2 or -3 and treated without or with peroxide, as indicated. […] Experiment in A was performed in the absence of the proteasome inhibitor MG-132. FIG. 15B. Similar experiments performed with MG-132 treatment either without or with peroxide.
# Sumoylation in vitro was done using SUMOlink™ SUMO-1 Kit and SUMOlink™ SUMO-2/3 Kit (Carlsbad). SUMO plasmids and pcDNA3.1-TFAP2A or K10R mutant were used for in vitro protein production. MCF-7 were transfected for 48 hours with […] SUMO expressing plasmids (Feng et al., 2013) that were kindly provided by Dr Xiaolu Yang (University of Pennsylvania). As indicated in some experiments, the proteasome inhibitor MG132 was added as described (Chu and Yang, 2011).
smiles,measurement,setting,value
CC/C(=C(\c1ccccc1)c1ccc(OCCN(C)C)cc1)c1ccccc1 [Tamoxifen],FREM2 expression,[1],not estrogen responsive
same,RET expression,[1],appropriately repressed
OO [peroxide],sumoylated TFAP2A,"[2]; BT549 cells co-transfected with TFAP2A and SUMO-1, -2 or -3, with vs without peroxide, FIG. 15A",Induction
CC(C)C[C@@H](C=O)NC(=O)[C@H](CC(C)C)NC(=O)[C@H](CC(C)C)NC(=O)OCc1ccccc1 [MG-132] (Cbz-Leu-Leu-Leu-aldehyde),identification of the sumoylated forms of TFAP2A,"[2]; BT549 cells, MG-132 treatment without or with peroxide, FIG. 15B",enhanced identification
